Assay results published in US20110086759A1, “CHEMICAL COMPOUNDS” (SYNGENTA CROP PROTECTION, INC., priority 2007, published 2011).

Legend:
Format in all cases: in vivo
[1] = system: Alopecurus myosuroides (ALOMY); assay: Pre-emergence biological efficacy, glasshouse pot test; conditions: 312 h, pre-emergence, rate 1,000 g/ha, evaluated after 13 days (100=total damage to plant; 0=no damage), read-out: Percentage damage caused to weed species, ALOMY
In short: (§1)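 One day after seeds were sown in pots, compound was sprayed at 1000 or 250 g/ha. Plants were kept at 24/16 °C with 14 h light and 65% humidity and watered twice daily; damage was graded at day 13 (0 none, 100 total).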

[2] = system: Amaranthus retoflexus (AMARE); assay: as above; conditions: Amaranthus retroflexus, 312 h; pre-emergence, rate 1,000 g/ha, evaluated after 13 days (100=total damage to plant; 0=no damage); read-out: Percentage damage caused to weed species, AMARE
In short: as §1

[3] = system: Echinochloa crus-galli (ECHCG); assay: as above; conditions: 312 h, pre-emergence, rate 1,000 g/ha, evaluated after 13 days (100=total damage to plant; 0=no damage), read-out: Percentage damage caused to weed species, ECHCG
In short: as §1

[4] = system: Ipomea hederaceae (IPOHE); assay: as above; conditions: Ipomoea hederacea, 312 h; pre-emergence, rate 1,000 g/ha, evaluated after 13 days (100=total damage to plant; 0=no damage); read-out: Percentage damage caused to weed species, IPOHE
In short: as §1

Setaria faberi (SETFA) [5] = assay: as above; conditions: 312 h, pre-emergence, rate 1,000 g/ha, evaluated after 13 days (100=total damage to plant; 0=no damage), read-out: Percentage damage caused to weed species, SETFA
In short: as §1

Solanum nigrum (SOLNI) [6] = assay: as above; conditions: 312 h, pre-emergence, rate 1,000 g/ha, evaluated after 13 days (100=total damage to plant; 0=no damage), read-out: Percentage damage caused to weed species, SOLNI
In short: as §1

[7] = system: Alopecurus myosuroides (ALOMY); assay: Post-emergence biological efficacy, glasshouse pot test; conditions: 312 h, Rate 1,000 g/ha, post-emergence spray, evaluated after 13 days (100=total damage to plant; 0=no damage to plant), read-out: Percentage damage caused to weed species, post-emergence, ALOMY
In short: (§2)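 Plants were sown in standard soil and grown 8 days in a glasshouse (24/16° C. day/night, 14 hours light, 65% humidity), then sprayed post-emergence at 1000 or 250 g/ha from acetone/water (50:50) with 0.5% Tween 20. Damage was scored visually after 13 days (0 = none, 100 = total).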

[8] = system: Amaranthus retoflexus (AMARE); assay: as above; conditions: Amaranthus retroflexus, 312 h; Rate 1,000 g/ha; post-emergence spray; evaluated after 13 days (100=total damage to plant; 0=no damage to plant); read-out: Percentage damage caused to weed species, post-emergence, AMARE
In short: as §2

[9] = system: Echinochloa crus-galli (ECHCG); assay: as above; conditions: 312 h, Rate 1,000 g/ha, post-emergence spray, evaluated after 13 days (100=total damage to plant; 0=no damage to plant), read-out: Percentage damage caused to weed species, post-emergence, ECHCG
In short: as §2

[10] = system: Ipomea hederaceae (IPOHE); assay: as above; conditions: Ipomoea hederacea, 312 h; Rate 1,000 g/ha; post-emergence spray; evaluated after 13 days (100=total damage to plant; 0=no damage to plant); read-out: Percentage damage caused to weed species, post-emergence, IPOHE
In short: as §2

Setaria faberi (SETFA) [11] = assay: as above; conditions: 312 h, Rate 1,000 g/ha, post-emergence spray, evaluated after 13 days (100=total damage to plant; 0=no damage to plant), read-out: Percentage damage caused to weed species, post-emergence, SETFA
In short: as §2

Solanum nigrum (SOLNI) [12] = assay: as above; conditions: 312 h, Rate 1,000 g/ha, post-emergence spray, evaluated after 13 days (100=total damage to plant; 0=no damage to plant), read-out: Percentage damage caused to weed species, post-emergence, SOLNI
In short: as §2

| SMILES | pest or weed control at 1000 g/ha [1] [%] | pest or weed control at 1000 g/ha [2] [%] | pest or weed control at 1000 g/ha [3] [%] | pest or weed control at 1000 g/ha [4] [%] | pest or weed control at 1000 g/ha (Setaria faberi (SETFA) [5]) [%] | pest or weed control at 1000 g/ha (Solanum nigrum (SOLNI) [6]) [%] | pest or weed control at 1000 g/ha [7] [%] | pest or weed control at 1000 g/ha [8] [%] | pest or weed control at 1000 g/ha [9] [%] | pest or weed control at 1000 g/ha [10] [%] | pest or weed control at 1000 g/ha (Setaria faberi (SETFA) [11]) [%] | pest or weed control at 1000 g/ha (Solanum nigrum (SOLNI) [12]) [%] |
| --- | --- | --- | --- | --- | --- | --- | --- | --- | --- | --- | --- | --- |
| COC(=O)c1nc(-c2ccc(F)c(OC)c2)nc(NCc2ccco2)c1Cl [Compound 243-48, 5-Chloro-2-(4-fluoro-3-methoxyphenyl)-4-(furan-2-yl-methyl-amino)-6-methoxy-carbonylpyrimidine] | 10 | 60 | 0 | 0 | 40 | 10 | 10 | 100 | 40 | 10 | 60 | 60 |
| COC(=O)c1nc(-c2ccc(F)c(C(F)(F)F)c2)nc(NCc2ccco2)c1Cl [Compound 244-48, 5-Chloro-2-(4-fluoro-3-trifluoromethyl-phenyl)-4-(furan-2-ylmethylamino)-6-methoxycarbonyl-pyrimidine] | 30 | 10 | 20 | 0 | 60 | 30 | 30 | 50 | 60 | 30 | 80 | 80 |
| COC(=O)c1nc(-c2ccc(F)c(Cl)c2)nc(NCc2ccco2)c1Cl [Compound 245-48, 5-Chloro-2-(3-chloro-4-fluorophenyl)-4-(furan-2-yl-methyl-amino)-6-methoxy-carbonylpyrimidine] | 30 | 80 | 30 | 20 | 30 | 10 | 20 | 100 | 40 | 60 | 70 | 90 |
| COC(=O)c1nc(-c2ccc(F)c(F)c2F)nc(NCc2ccco2)c1Cl [Compound 247-48, 5-Chloro-4-(furan-2-ylmethylamino)-6-methoxycarbonyl-2-(2,3,4-trifluoro-phenyl)pyrimidine] | 10 | 90 | 10 | 40 | 20 | 40 | 30 | 100 | 60 | 60 | 40 | 90 |
| COC(=O)c1nc(-c2ccc(OC(F)(F)F)cc2)nc(NCc2ccco2)c1Cl [Compound 248-48, 5-Chloro-4-(furan-2-ylmethylamino)-6-methoxycarbonyl-2-(4-trifluoromethoxy-phenyl)pyrimidine] | 0 | 60 | 0 | 0 | 0 | 20 | 0 | 70 | 40 | 50 | 0 | 70 |
| COC(=O)c1nc(-c2cccc(OC)c2F)nc(NCc2ccco2)c1Cl [Compound 249-48, 5-Chloro-2-(2-fluoro-3-methoxyphenyl)-4-(furan-2-ylmethyl-amino)-6-methoxy-carbonylpyrimidine] | 0 | 70 | 0 | 20 | 20 | 30 | 0 | 70 | 0 | 30 | 0 | 70 |
| COC(=O)c1nc(-c2ccc(OC)cc2)nc(NCc2ccco2)c1Cl [Compound 250-48, 5-Chloro-4-(furan-2-ylmethylamino)-2-(4-methoxyphenyl)-6-methoxycarbonyl-pyrimidine] | 0 | 30 | 0 | 0 | 20 | 0 | 0 | 90 | 30 | 30 | 50 | 40 |
| COC(=O)c1nc(-c2ccc(OC)cc2C)nc(NCc2ccco2)c1Cl [Compound 251-48, 5-Chloro-4-(furan-2-yl-methylamino)-2-(4-methoxy-2-methyl-pheny)-6-methoxy-carbonylpyrimidine] | 0 | 0 | 0 | 0 | 0 | 0 | 0 | 0 | 0 | 0 | 0 | 20 |
| COC(=O)c1nc(-c2ccc(OC)cc2OC)nc(NCc2ccco2)c1Cl [Compound 252-48, 5-Chloro-2-(2,4-dimethoxyphenyl)-4-(furan-2-yl-methyl-amino)-6-methoxy-carbonylpyrimidine] | 0 | 0 | 0 | 0 | 20 | 0 | 0 | 30 | 0 | 30 | 0 | 20 |
| COC(=O)c1nc(-c2ccc(OC)c(Cl)c2)nc(NCc2ccco2)c1Cl [Compound 254-48, 5-Chloro-2-(3-chloro-4-methoxyphenyl)-4-(furan-2-yl-methyl-amino)-6-methoxy-carbonylpyrimidine] | 0 | 0 | 0 | 0 | 0 | 0 | 0 | 20 | 0 | 10 | 0 | 30 |
